From patent US20090325964A1, “Piperazine Metabotropic Glutamate Receptor 5 (MGLUR5) Negative Allosteric Modulators For Anxiety/Depression” (Wyeth, priority 2008, published 2009)
Read-outs that look alike come from different tables or passages of the source.

What was measured:
[1] = target: T1, mGluR5 (Rattus norvegicus, UniProt P31424); assay: IC50 column under 'Biological Activity' (assay not identified in the shown text; not the binding Ki)
[2] = target: T2, rat mGluR5 receptor (Rattus norvegicus, UniProt P31424); assay: [3H]-MPEP displacement binding assay, HEK-293 cell membranes expressing rat mGluR5; conditions: [3H]-MPEP displacement, read-out: Median Ki
T2 construct: expressed in transfected cells; host or cells: HEK-293
In short: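 Membranes from HEK-293 cells expressing rat mGluR5 (12-25 μg protein), incubated 60 min at room temperature with 4 nM [3H]-MPEP in 50 mM Tris pH 7.5, then filtered. Nonspecific binding defined with 10 μM MPEP.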

[3] = target: T1, mGluR5; assay: IC50 column under 'Biological Activity' (assay not identified in the shown text; not the binding Ki); remark: listed apart in the source

T2 sequence (P31424 21-1203): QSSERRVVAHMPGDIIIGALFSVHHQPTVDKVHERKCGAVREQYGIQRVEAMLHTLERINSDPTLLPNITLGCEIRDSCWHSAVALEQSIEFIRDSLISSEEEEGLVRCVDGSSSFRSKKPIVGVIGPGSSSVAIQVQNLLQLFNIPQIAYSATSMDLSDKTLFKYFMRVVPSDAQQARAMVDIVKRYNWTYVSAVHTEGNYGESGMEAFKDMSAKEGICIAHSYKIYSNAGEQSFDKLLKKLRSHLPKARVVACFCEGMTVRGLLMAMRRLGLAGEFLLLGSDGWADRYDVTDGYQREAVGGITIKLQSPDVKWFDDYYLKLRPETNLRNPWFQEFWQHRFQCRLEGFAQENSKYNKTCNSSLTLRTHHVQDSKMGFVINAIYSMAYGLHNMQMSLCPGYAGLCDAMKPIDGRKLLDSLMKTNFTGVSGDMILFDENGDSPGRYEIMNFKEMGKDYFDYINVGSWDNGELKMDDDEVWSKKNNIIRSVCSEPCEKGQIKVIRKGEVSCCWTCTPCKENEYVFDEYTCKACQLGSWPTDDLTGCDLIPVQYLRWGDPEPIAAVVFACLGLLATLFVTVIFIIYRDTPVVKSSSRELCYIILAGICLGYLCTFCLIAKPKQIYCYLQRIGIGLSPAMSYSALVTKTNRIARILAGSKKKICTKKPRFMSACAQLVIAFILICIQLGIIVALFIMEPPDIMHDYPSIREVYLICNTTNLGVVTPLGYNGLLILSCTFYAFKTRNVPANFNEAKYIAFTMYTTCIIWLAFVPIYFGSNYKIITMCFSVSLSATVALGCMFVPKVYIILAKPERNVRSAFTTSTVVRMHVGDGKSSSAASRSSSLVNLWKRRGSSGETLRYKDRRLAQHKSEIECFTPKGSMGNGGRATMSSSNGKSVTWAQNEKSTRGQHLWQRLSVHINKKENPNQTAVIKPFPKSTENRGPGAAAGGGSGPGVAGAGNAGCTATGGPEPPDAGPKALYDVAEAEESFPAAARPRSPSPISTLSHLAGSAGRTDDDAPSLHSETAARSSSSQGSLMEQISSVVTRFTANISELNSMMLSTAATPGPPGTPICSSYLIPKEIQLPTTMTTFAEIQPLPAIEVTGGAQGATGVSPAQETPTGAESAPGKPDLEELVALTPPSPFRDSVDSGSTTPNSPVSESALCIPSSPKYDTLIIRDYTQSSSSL
T1 sequence (P31424 21-1203): as above

| SMILES | IC50 [1] | Ki ([2]; rat mGluR5) | IC50 [3] | Ki ([2]; rat mGluR5 membranes) |
| --- | --- | --- | --- | --- |
| COc1ccc(C(=O)N2CCN(c3ccccc3Cl)C(=O)C2)cc1C#Cc1ccccn1 [Compound 328, 1-(2-chlorophenyl)-4-{[4-methoxy-3-(pyridin-2-ylethynyl)phenyl]carbonyl}piperazin-2-one] | 50 nM | 96 nM |  |  |
| COc1ccc(C(=O)N2CCN(c3ccccc3)C(=O)C2)cc1C#Cc1ccccn1 [Compound 329, 4-{[4-methoxy-3-(pyridin-2-ylethynyl)phenyl]carbonyl}-1-phenylpiperazin-2-one] | 118 nM | 84 nM |  |  |
| O=C(c1ccc(OC(F)(F)F)c(C#Cc2ccccn2)c1)N1CCN(c2cnccn2)CC1 [Compound 335, 2-{4-[3-(pyridin-2-ylethynyl)-4-(trifluoromethoxy)benzoyl]piperazin-1-yl}pyrazine] | 273 nM | 176 nM |  |  |
| O=C(c1ccc(OC(F)(F)F)c(C#Cc2ccccn2)c1)N1CCN(c2noc3ccccc23)CC1 [Compound 338, 3-{4-[3-(pyridin-2-ylethynyl)-4-(trifluoromethoxy)benzoyl]piperazin-1-yl}-1,2-benzisoxazole] | 16 nM | 1 nM |  |  |
| O=C(c1ccc(C(F)(F)F)c(C#Cc2ccccn2)c1)N1CCN(c2ccccn2)CC1 [Compound 369, 1-pyridin-2-yl-4-{[3-(pyridin-2-ylethynyl)-4-(trifluoromethyl)phenyl]carbonyl}piperazine] |  |  | 30 nM | 31 nM |
| O=C(c1ccc(C(F)(F)F)c(C#Cc2ccccn2)c1)N1CCN(c2noc3ccccc23)CC1 [Compound 374, 3-(4-{[3-(pyridin-2-ylethynyl)-4-(trifluoromethyl)phenyl]carbonyl}piperazin-1-yl)-1,2-benzisoxazole] |  |  | 53 nM | 4 nM |
| O=C(c1ccc(C(F)(F)F)c(C#Cc2ccccn2)c1)N1CCN(C(=O)c2ccco2)CC1 [Compound 375, 1-(furan-2-ylcarbonyl)-4-{[3-(pyridin-2-ylethynyl)-4-(trifluoromethyl)phenyl]carbonyl}piperazine] |  |  | 40 nM | 29 nM |
| O=C(c1ccc(C(F)(F)F)c(C#Cc2ccccn2)c1)N1CCN(c2nccs2)CC1 [Compound 378, 1-{[3-(pyridin-2-ylethynyl)-4-(trifluoromethyl)phenyl]carbonyl}-4-(1,3-thiazol-2-yl)piperazine] |  |  | 43 nM | 49 nM |
| COc1nc(N2CCN(C(=O)c3ccc(OC(F)F)c(C#Cc4ccccn4)c3)CC2)ncc1Br [Compound 382, 5-bromo-2-(4-{[4-(difluoromethoxy)-3-(pyridin-2-ylethynyl)phenyl]carbonyl}piperazin-1-yl)-4-methoxy pyrimidine] |  |  | 104 nM | 35 nM |
| O=C(c1ccc(OC(F)F)c(C#Cc2ccccn2)c1)N1CCN(c2nsc3ccccc23)CC1 [Compound 383, 3-(4-{[4-(difluoromethoxy)-3-(pyridin-2-ylethynyl)phenyl]carbonyl}piperazin-1-yl)-1,2-benzisothiazole] |  |  | 41 nM | 1 nM |
| O=C(c1ccc(Cl)c(C#Cc2ccccn2)c1)N1CCN(c2ccccn2)CC1 [Compound 386, 1-[4-chloro-3-(pyridin-2-ylethynyl)benzoyl]-4-pyridin-2-ylpiperazin] |  |  | 39 nM | 3 nM |
| O=C(c1ccc(Cl)c(C#Cc2ccccn2)c1)N1CCN(c2cnccn2)CC1 [Compound 388, 2-{4-[4-chloro-3-(pyridin-2-ylethynyl)benzoyl]piperazin-1-yl}pyrazine] |  |  | 94 nM | 13 nM |
| O=C(c1ccc(Cl)c(C#Cc2ccccn2)c1)N1CCN(c2ccncc2)CC1 [Compound 391, 1-[4-chloro-3-(pyridin-2-ylethynyl)benzoyl]-4-pyridin-4-ylpiperazine] |  |  | 1490 nM | 79 nM |
| O=C(c1ccc(Cl)c(C#Cc2ccccn2)c1)N1CCN(c2cccc(O)c2)CC1 [Compound 393, 3-(4-{[4-chloro-3-(pyridin-2-ylethynyl)phenyl]carbonyl}piperazin-1-yl)phenol] |  |  | 144 nM | 12 nM |
| COc1cccc(N2CCN(C(=O)c3ccc(Cl)c(C#Cc4ccccn4)c3)CC2)c1 [Compound 395, 1-{[4-chloro-3-(pyridin-2-ylethynyl)phenyl]carbonyl}-4-(3-methoxyphenyl)piperazine] |  |  | 113 nM | 19 nM |

Continued, values first:

| IC50 [1] | Ki ([2]; rat mGluR5) | IC50 [3] | Ki ([2]; rat mGluR5 membranes) | SMILES |
| --- | --- | --- | --- | --- |
| 35 nM | 6 nM |  |  | CCOc1ccc(C(=O)N2CCN(c3noc4ccccc34)CC2)cc1C#Cc1ccccn1 [Compound 322, 3-{4-[4-ethoxy-3-(pyridin-2-ylethynyl)benzoyl]piperazin-1-yl}-1,2-benzisoxazole] |
| 78 nM | 5 nM |  |  | O=C(c1ccc(OCC2CC2)c(C#Cc2ccccn2)c1)N1CCN(c2noc3ccccc23)CC1 [Compound 324, 3-(4-{[4-(cyclopropylmethoxy)-3-(pyridin-2-ylethynyl)phenyl]carbonyl}piperazin-1-yl)-1,2-benzisoxazole] |
| 29 nM | 72 nM |  |  | COc1ccc(C(=O)N2CCN(c3ccc(Cl)cc3)C(=O)C2)cc1C#Cc1ccccn1 [Compound 326, 1-(4-Chlorophenyl)-4-{[4-methoxy-3-(pyridin-2-ylethynyl)phenyl]carbonyl}piperazin-2-one] |
| 49 nM | 40 nM |  |  | COc1ccc(C(=O)N2CCN(c3cccc(Cl)c3)C(=O)C2)cc1C#Cc1ccccn1 [Compound 327, 1-(3-chlorophenyl)-4-{[4-methoxy-3-(pyridin-2-ylethynyl)phenyl]carbonyl}piperazin-2-one] |
| 51 nM | 61 nM |  |  | COc1ccc(C(=O)N2CCN(Cc3ccccc3)C(=O)C2)cc1C#Cc1ccccn1 [Compound 331, 1-Benzyl-4-[4-methoxy-3-(pyridin-2-ylethynyl)benzoyl]piperazin-2-one] |
| 7 nM | 2 nM |  |  | O=C(c1ccc(OC(F)(F)F)c(C#Cc2ccccn2)c1)N1CCN(c2ccccn2)CC1 [Compound 340, 1-Pyridin-2-yl-4-{[3-(pyridin-2-ylethynyl)-4-(trifluoromethoxy)phenyl]carbonyl}piperazine] |
| 56 nM | 64 nM |  |  | COc1ccc(C(=O)N2CCN(c3ncccn3)CC2)cc1C#Cc1cccc(C#N)c1 [Compound 361, 3-({2-methoxy-5-[(4-pyrimidin-2-ylpiperazin-1-yl)carbonyl]phenyl}ethynyl)benzonitrile] |
| 1450 nM | 68 nM |  |  | COc1ccc(C(=O)N2CCN(c3ncccn3)CC2)cc1C#Cc1ccc(F)cc1 [Compound 362, 2-(4-{3-[(4-fluorophenyl)ethynyl]-4-methoxybenzoyl}piperazin-1-yl)pyrimidine] |
|  |  | 34 nM | 40 nM | COc1ccnc(N2CCN(C(=O)c3ccc(C(F)(F)F)c(C#Cc4ccccn4)c3)CC2)n1 [Compound 373, 4-methoxy-2-(4-{[3-(pyridin-2-ylethynyl)-4-(trifluoromethyl)phenyl]carbonyl}piperazin-1-yl)pyrimidine] |
|  |  | 16 nM | 1 nM | O=C(c1ccc(OC(F)F)c(C#Cc2ccccn2)c1)N1CCN(c2noc3ccccc23)CC1 [Compound 384, 3-(4-{[4-(difluoromethoxy)-3-(pyridin-2-ylethynyl)phenyl]carbonyl}piperazin-1-yl)-1,2-benzisoxazole] |
|  |  | 13 nM | 7 nM | O=C(c1ccc(OC(F)F)c(C#Cc2ccccn2)c1)N1CCN(c2ccccn2)CC1 [Compound 385, 1-{[4-(Difluoromethoxy)-3-(pyridin-2-ylethynyl)phenyl]carbonyl}-4-pyridin-2-ylpiperazin] |
|  |  | 131 nM | 10 nM | O=C(c1ccc(Cl)c(C#Cc2ccccn2)c1)N1CCN(c2ncccn2)CC1 [Compound 387, 2-{4-[4-chloro-3-(pyridin-2-ylethynyl)benzoyl]piperazin-1-yl}pyrimidine] |
|  |  | 239 nM | 63 nM | N#Cc1cccnc1N1CCN(C(=O)c2ccc(Cl)c(C#Cc3ccccn3)c2)CC1 [Compound 389, 2-{4-[4-chloro-3-(pyridin-2-ylethynyl)benzoyl]piperazin-1-yl}nicotinonitrile] |
|  |  | 39 nM | 7 nM | O=C(c1ccc(Cl)c(C#Cc2ccccn2)c1)N1CCN(c2nccs2)CC1 [Compound 390, 1-[4-chloro-3-(pyridin-2-ylethynyl)benzoyl]-4-(1,3-thiazol-2-yl)piperazine] |
|  |  | 145 nM | 21 nM | O=C(c1ccc(Cl)c(C#Cc2ccccn2)c1)N1CCN(c2ncccc2Cl)CC1 [Compound 394, 1-(3-chloropyridin-2-yl)-4-{[4-chloro-3-(pyridin-2-ylethynyl)phenyl]carbonyl}piperazine] |
|  |  | 47 nM | 17 nM | N#Cc1nccnc1N1CCN(C(=O)c2ccc(Cl)c(C#Cc3ccccn3)c2)CC1 [Compound 396, 3-(4-{[4-chloro-3-(pyridin-2-ylethynyl)phenyl]carbonyl}piperazin-1-yl)pyrazine-2-carbonitrile] |
